According to patent publication US20060234909A1, “Compositions and methods for increasing drug efficiency” (priority 2003, published 2006):
Read-outs that look alike come from different tables or passages of the source. Ends that are not written are not given here.

How the values were obtained:
[1] = biological target: Tie-2 (Homo sapiens, UniProt Q02763); settings: Deng et al. 2001; read-out: Km as substrate for Tie-2; cited from earlier work
[2] = biological target: Met kinase (Homo sapiens, UniProt P08581); settings: Hays and Watowich 2003; read-out: Km as substrate for Met kinase; cited from earlier work
Chain of Met kinase (P08581 25-1390): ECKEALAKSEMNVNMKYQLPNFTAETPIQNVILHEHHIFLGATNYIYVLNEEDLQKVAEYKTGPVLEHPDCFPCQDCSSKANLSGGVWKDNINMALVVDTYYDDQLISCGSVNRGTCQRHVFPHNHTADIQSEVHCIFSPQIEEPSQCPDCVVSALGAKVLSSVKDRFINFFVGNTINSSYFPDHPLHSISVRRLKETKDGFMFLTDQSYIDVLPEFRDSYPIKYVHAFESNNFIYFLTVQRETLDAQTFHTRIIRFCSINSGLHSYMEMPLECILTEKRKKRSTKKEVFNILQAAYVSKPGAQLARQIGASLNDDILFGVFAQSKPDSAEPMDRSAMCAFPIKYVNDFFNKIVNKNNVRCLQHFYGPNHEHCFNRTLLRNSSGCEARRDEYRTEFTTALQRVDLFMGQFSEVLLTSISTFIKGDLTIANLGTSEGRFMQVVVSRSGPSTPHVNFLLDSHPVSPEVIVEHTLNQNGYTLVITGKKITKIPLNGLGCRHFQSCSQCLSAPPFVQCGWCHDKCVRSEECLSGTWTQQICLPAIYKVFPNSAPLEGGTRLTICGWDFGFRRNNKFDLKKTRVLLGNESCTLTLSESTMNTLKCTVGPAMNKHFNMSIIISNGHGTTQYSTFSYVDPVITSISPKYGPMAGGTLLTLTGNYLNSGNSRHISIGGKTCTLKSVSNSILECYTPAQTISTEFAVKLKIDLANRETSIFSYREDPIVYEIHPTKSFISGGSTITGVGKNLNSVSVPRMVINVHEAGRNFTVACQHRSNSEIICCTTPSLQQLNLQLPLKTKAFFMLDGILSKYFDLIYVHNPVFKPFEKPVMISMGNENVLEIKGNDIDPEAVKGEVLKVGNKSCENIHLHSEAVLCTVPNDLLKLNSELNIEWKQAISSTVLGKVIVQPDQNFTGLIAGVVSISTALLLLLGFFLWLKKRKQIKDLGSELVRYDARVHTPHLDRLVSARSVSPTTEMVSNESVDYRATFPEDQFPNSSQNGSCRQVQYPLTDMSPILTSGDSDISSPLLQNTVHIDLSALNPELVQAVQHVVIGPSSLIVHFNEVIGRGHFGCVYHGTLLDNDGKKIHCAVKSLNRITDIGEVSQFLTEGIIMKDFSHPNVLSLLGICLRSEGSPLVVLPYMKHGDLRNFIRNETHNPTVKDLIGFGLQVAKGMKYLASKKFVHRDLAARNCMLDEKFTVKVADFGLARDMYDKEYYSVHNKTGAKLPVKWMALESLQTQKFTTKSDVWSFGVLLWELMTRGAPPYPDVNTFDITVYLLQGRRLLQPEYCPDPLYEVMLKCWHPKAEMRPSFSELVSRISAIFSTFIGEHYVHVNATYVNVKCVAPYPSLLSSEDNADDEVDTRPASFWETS

[3] = system: Normal human foreskin fibroblasts (HFF); assay: cells; settings: Fibroblast, 72 h, read-out: HFFMonolayer EC50
[4] = in vitro; settings: human
[5] = Serum stability in RPMI1640 medium containing 10% fetal bovine serum; format: in vitro ADME; settings: for remaining at 4 h, 10 μM / remaining at 8 h, 10 μM / remaining at 24 h, 10 μM / remaining at 72 h, 10 μM / half-life at 10 μM: bovine; for remaining at 4 h, 10 μM: read-out: Relative Percent Remaining at 4 hr; for remaining at 8 h, 10 μM: read-out: Relative Percent Remaining at 8 hr; for remaining at 24 h, 10 μM: read-out: Relative Percent Remaining at 24 hr; for remaining at 72 h, 10 μM: read-out: Relative Percent Remaining at 72 hr; for half-life at 10 μM: read-out: T½ (converted)
Experimental: The stability of conjugates was measured in RPMI1640 cell culture medium containing 10% fetal bovine serum. The serum-containing medium was pre-warmed at 37° C. for 3 min prior to addition of test articles. Test articles, prepared in DMSO as 5 mM stocks, were added to the cell culture media to a final concentration of 10 μM. Aliquots ([…]) were withdrawn in triplicate at 0, 4, 8, 24 and 72 hours and combined with the same volume of ice-cold acetonitrile to terminate the reaction. The mixture was centrifuged at 2,000×g for 10 minutes. One part of the supernatant was mixed with four parts of deionized water to bring down the percentage of organic solvent. The diluted samples were then assayed by LC/MS for the test article. The natural log of the percent remaining was plotted versus time. A linear fit was used to determine the rate constant. The fit was truncated after the percent of remaining test article was less than 10%. The elimination half-lives associated with the disappearance of test articles were determined to compare their relative stability. The assays were carried out by Absorption Systems (Exton, Pa.).

[6] = system: MCF-7 cells; assay: cells; settings: Homo sapiens, MCF7, read-out: MCF-7 Soft Agar EC50
[7] = system: HT-29 cells; assay: cells; settings: Homo sapiens, HT-29, read-out: HT-29 Soft Agar EC50
[8] = system: tubulin; assay: Fluorescence-based tubulin polymerization assay (MPA; enhancement for paclitaxel, inhibition for vinblastine); format: biochemical
How it was run: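 Tubulin polymerisation was followed by fluorescence (ex 360/em 405 nm) with 1 mg/ml BSA in all assays. For paclitaxel conjugates, glycerol was omitted. Parent drugs and conjugates were tested at 0.75, 1.5, 3 and 10 micromolar final, and values come from the linear range of the dose responses.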

[9] = system: MCF-7 breast carcinoma; assay: Cytotoxicity assay (monolayer), MCF-7; format: cell-based; settings: MCF7, ML (monolayer); read-out: MCF7 (EC50 Ave) ML;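 note: cells treated 72 h with 6-8 compound doses versus DMSO vehicle controls, EC50 fitted by 4-parameter dose-response curves, averaged across all tests and lots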
[10] = system: Normal human foreskin fibroblasts (HFF); settings: read-out: HFF (EC50 Ave) ML; HFF, ML (monolayer)
[11] = system: HUVEC; assay: Cytotoxicity assay (monolayer), HUVEC; format: cell-based; settings: ML (monolayer), read-out: HUVEC (EC50 Ave) ML
[12] = system: HT-29 cells; settings: read-out: HT29 (EC50 Ave) SA; HT29, SA (soft agar)
[13] = system: HT-29 colorectal carcinoma; assay: Cytotoxicity assay (monolayer), HT-29; format: cell-based; settings: HT29, ML (monolayer); read-out: HT29 (EC50 Ave) ML;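 note: monolayer cultures tested in triplicate, compound exposure for three days against DMSO vehicle controls, EC50 fitted from dose-response curves and averaged across all tests and lots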
[14] = system: tumor cells vs normal cells; assay: Cytotoxic selectivity index (normal cells in monolayer vs tumor cells in soft agar); settings: HFF/HT29
[15] = system: MCF-7 cells; settings: read-out: MCF7 (EC50 Ave) SA; MCF7, SA (soft agar)
[16] = biological target: T1, Human Src (Homo sapiens, UniProt P12931); assay: Src kinase assay (PKLight ATP utilization, substrate phosphorylation as % of parent peptide); format: biochemical
T1 construct: purchased Upstate (Charlottesville, Va.) 14-326
T1 sequence (P12931 whole entry): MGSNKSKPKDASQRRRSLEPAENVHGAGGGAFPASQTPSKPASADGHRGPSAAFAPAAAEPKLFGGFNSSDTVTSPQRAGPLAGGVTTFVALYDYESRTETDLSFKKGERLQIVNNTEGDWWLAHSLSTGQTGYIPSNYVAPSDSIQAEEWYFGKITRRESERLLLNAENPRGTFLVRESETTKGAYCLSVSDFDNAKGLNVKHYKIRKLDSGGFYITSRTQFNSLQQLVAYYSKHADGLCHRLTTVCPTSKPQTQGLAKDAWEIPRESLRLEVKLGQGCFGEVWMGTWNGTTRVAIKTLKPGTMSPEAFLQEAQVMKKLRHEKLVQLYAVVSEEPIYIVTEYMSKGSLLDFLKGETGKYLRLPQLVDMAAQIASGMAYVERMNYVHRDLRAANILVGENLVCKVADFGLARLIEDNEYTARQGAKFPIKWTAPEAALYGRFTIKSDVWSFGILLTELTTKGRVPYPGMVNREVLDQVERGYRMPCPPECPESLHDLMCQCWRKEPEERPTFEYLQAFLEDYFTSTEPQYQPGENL
How it was run: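 Recombinant human Src or Akt phosphorylated peptide or drug–peptide conjugate substrates (25, 50, 100 μM) at 30° C for 2–5 hours, in Tris-HCl pH 7.5 buffer with MgCl2 and ATP. ATP use was read by luciferase luminescence against no-substrate and no-ATP controls. Phosphorylation was taken from the linear range and expressed as % of the parent peptide.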

Chain of Tie-2 (Q02763 23-1124, species assumed): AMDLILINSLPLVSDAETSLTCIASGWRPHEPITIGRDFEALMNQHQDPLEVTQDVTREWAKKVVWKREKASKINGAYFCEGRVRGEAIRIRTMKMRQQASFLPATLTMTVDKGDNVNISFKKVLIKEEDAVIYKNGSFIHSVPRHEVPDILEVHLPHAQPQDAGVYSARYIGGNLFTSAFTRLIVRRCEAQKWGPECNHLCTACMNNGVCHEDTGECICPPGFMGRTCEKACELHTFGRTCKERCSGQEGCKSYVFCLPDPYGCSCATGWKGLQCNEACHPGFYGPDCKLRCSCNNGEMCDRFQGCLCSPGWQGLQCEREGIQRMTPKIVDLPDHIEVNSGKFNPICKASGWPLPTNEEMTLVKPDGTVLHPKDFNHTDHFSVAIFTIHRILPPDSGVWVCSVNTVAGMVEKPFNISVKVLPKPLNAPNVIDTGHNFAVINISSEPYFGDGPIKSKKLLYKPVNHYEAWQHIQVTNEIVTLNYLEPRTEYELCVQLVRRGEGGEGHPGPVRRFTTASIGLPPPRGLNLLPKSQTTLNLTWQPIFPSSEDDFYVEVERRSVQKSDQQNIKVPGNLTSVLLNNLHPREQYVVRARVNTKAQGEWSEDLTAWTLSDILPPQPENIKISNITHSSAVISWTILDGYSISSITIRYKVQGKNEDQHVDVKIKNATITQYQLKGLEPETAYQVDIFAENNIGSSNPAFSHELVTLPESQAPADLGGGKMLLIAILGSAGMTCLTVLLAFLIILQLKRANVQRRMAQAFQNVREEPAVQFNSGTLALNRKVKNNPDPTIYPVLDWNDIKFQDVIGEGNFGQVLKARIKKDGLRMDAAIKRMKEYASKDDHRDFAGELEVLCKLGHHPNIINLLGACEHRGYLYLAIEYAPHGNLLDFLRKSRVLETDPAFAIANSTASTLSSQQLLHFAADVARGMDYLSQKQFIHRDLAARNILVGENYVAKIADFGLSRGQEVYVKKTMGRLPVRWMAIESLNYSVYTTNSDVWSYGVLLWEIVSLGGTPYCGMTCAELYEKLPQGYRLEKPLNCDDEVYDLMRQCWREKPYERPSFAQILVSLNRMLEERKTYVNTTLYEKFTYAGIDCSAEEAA

Compound | selectivity ratio [4] | Relative Percent Remaining at 0 hr [5] | remaining at 4 h, 10 μM [5] | remaining at 8 h, 10 μM [5] | remaining at 24 h, 10 μM [5] | remaining at 72 h, 10 μM [5] | half-life at 10 μM [5] | other results
RLVAYEGWV [nine amino acid peptide substrate for Tie-2] |  |  |  |  |  |  |  | Km [1]: 119 µM
DSDVHVNATYVNVKCVAP [18 amino acid peptide substrate for Met kinase] |  |  |  |  |  |  |  | Km [2]: 67 µM
CC[C@]1(O)C[C@@H]2CN(CCc3c([nH]c4ccccc34)[C@@](C(=O)OC)(c3cc4c(cc3OC)N(C)[C@H]3[C@@](O)(C(=O)OC)[C@H](OC(C)=O)[C@]5(CC)C=CCN6CC[C@]43[C@@H]65)C2)C1 [Vinblastine, reference compound] | 0.2 | 100% | 95% | 95% | 87% | 67% | > 4320 min | EC50 [3]: 1.5 ± 0.5 nM; EC50 [6]: 7 ± 5 nM; EC50 [7]: 7 ± 7 nM
CC[C@H](C)[C@H](NC(=O)[C@H](Cc1ccc(O)cc1)NC(=O)[C@H](CCC(=O)O)NC(C)=O)C(=O)N[C@@H](Cc1ccc(O)cc1)C(=O)NCC(=O)N[C@@H](CO)C(=O)N[C@@H](Cc1ccccc1)C(=O)N[C@@H](CCCCN)C(=O)NCCCOCCOCCOCCCNC(=O)O[C@H]1C(=O)[C@@]2(C)[C@H]([C@H](OC(=O)c3ccccc3)[C@]3(O)C[C@H](OC(=O)[C@H](O)[C@@H](NC(=O)c4ccccc4)c4ccccc4)C(C)=C1C3(C)C)[C@]1(OC(C)=O)CO[C@@H]1C[C@@H]2O | 24.1 | 100% | 95% | 99% | 69% | 22% | 1920 min | Ave. MPA Act. [8]: B (B=50-80); EC50 [9]: > 100 nM; EC50 [10]: > 100 nM; EC50 [11]: > 100 nM; EC50 [12]: > 100 nM; EC50 [13]: > 100 nM; Cytotoxic Selectivity Index HFF/HT29 [14]: 20.5; EC50 [15]: > 100 nM; Average src kinase activity [16]: C (C>40)
